Where “and” joins values, the source holds several entries; their conditions need not be identical. Identical values can stand only once. Toxic doses and inconclusive results are not listed.
Tested on: P388 leukemia ip, CD2F1 mice, survival T/C
Experiment: NCI In Vivo Anticancer Drug Screen. Data for tumor model P388 Leukemia (intraperitoneal) in CD2F1 (CDF1) mice
Conditions: endpoint: median survival time, higher = longer survival
How it was run: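 Mice carrying the transplanted tumor received test compound or vehicle. Survival was recorded in each group, and the value is the treated-group measurement divided by that of the vehicle-treated control group.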

[1] = dose: 60.0 mg/kg/injection, schedule: Q01DX005 (ip), vehicle: Klucel (hydroxypropylcellulose) (HPC)
[2] = dose: 120.0 mg/kg/injection, schedule: Q01DX005 (ip), vehicle: Klucel (hydroxypropylcellulose) (HPC)
[3] = dose: 240.0 mg/kg/injection, schedule: Q01DX005 (ip), vehicle: Klucel (hydroxypropylcellulose) (HPC)
[4] = dose: 60.0 mg/kg/injection, schedule: Q01DX005 (ip), vehicle: saline with Tween-80
[5] = dose: 120.0 mg/kg/injection, schedule: Q01DX005 (ip), vehicle: saline with Tween-80
[6] = dose: 240.0 mg/kg/injection, schedule: Q01DX005 (ip), vehicle: saline with Tween-80
[7] = dose: 50.0 mg/kg/injection, schedule: Q01DX005 (ip), vehicle: saline with Tween-80
[8] = dose: 100.0 mg/kg/injection, schedule: Q01DX005 (ip), vehicle: saline with Tween-80
[9] = dose: 200.0 mg/kg/injection, schedule: Q01DX005 (ip), vehicle: saline with Tween-80
[10] = dose: 100.0 mg/kg/injection, schedule: Q01DX001 (ip), vehicle: saline with Tween-80
[11] = dose: 12.5 mg/kg/injection, schedule: Q01DX005 (ip), vehicle: saline
[12] = dose: 25.0 mg/kg/injection, schedule: Q01DX005 (ip), vehicle: saline
[13] = dose: 50.0 mg/kg/injection, schedule: Q01DX009 (ip), vehicle: Klucel (hydroxypropylcellulose) (HPC)
[14] = dose: 100.0 mg/kg/injection, schedule: Q01DX009 (ip), vehicle: Klucel (hydroxypropylcellulose) (HPC)
[15] = dose: 200.0 mg/kg/injection, schedule: Q01DX009 (ip), vehicle: Klucel (hydroxypropylcellulose) (HPC)
[16] = dose: 50.0 mg/kg/injection, schedule: Q01DX009 (ip), vehicle: saline with Tween-80
[17] = dose: 100.0 mg/kg/injection, schedule: Q01DX009 (ip), vehicle: saline with Tween-80
[18] = dose: 25.0 mg/kg/injection, schedule: Q01DX009 (ip), vehicle: saline with Tween-80
[19] = dose: 100.0 mg/kg/injection, schedule: Q04DX002 (ip), vehicle: saline with Tween-80
[20] = dose: 200.0 mg/kg/injection, schedule: Q04DX002 (ip), vehicle: saline with Tween-80
[21] = dose: 400.0 mg/kg/injection, schedule: Q04DX002 (ip), vehicle: saline with Tween-80

O=C1C2=C(Nc3cc(Cl)ccc3N2)OC1c1ccc(C2OC3=C(Nc4ccc(Cl)cc4N3)C2=O)cc1 (centres undefined)
T/C [1]: 104 % of control | T/C [2]: 111 % of control | T/C [3]: 105 % of control

O=[N+]([O-])c1cccc(S(=O)(=O)N/N=C/c2cc([N+](=O)[O-])cc(I)c2O)c1
T/C [4]: 103 % of control | T/C [5]: 95 % of control | T/C [6]: 111 % of control

O=C1C(CCl)(CCl)CCC12CNC(Cl)(Cl)C2 (centres undefined)
T/C [7]: 97 % of control | T/C [8]: 97 % of control | T/C [9]: 102 % of control

CCOC(=O)NC1CC2c3ccccc3C1c1ccccc12 (centres undefined)
T/C [4]: 101 % of control | T/C [5]: 101 % of control | T/C [6]: 107 % of control

CCOC(=O)CCCCCCCCNC(=O)N1c2c(nc(N)[nH]c2=O)NCC1CNc1ccc(C(=O)NC(CCC(=O)O)C(=O)O)cc1 (centres undefined)
T/C (dose: 50.0 mg/kg/injection, schedule: Q04DX003 (ip), vehicle: Klucel (hydroxypropylcellulose) (HPC)): 111 % of control | T/C (dose: 100.0 mg/kg/injection, schedule: Q04DX003 (ip), vehicle: Klucel (hydroxypropylcellulose) (HPC)): 106 % of control | T/C (dose: 200.0 mg/kg/injection, schedule: Q04DX003 (ip), vehicle: Klucel (hydroxypropylcellulose) (HPC)): 108 % of control

CC12CCCN1CC=C2CO (centres undefined)
T/C (dose: 25.0 mg/kg/injection, schedule: Q01DX001 (ip), vehicle: saline with Tween-80): 100 % of control | T/C (dose: 50.0 mg/kg/injection, schedule: Q01DX001 (ip), vehicle: saline with Tween-80): 96 % of control | T/C [10]: 100 % of control

CN(C)C1CC2C=CC1C1C=CC21 (centres undefined)
T/C (dose: 3.13 mg/kg/injection, schedule: Q01DX009 (ip), vehicle: water): 100 % of control | T/C (dose: 6.25 mg/kg/injection, schedule: Q01DX009 (ip), vehicle: water): 99 % of control | T/C (dose: 12.5 mg/kg/injection, schedule: Q01DX009 (ip), vehicle: water): 100 % of control | T/C (dose: 25.0 mg/kg/injection, schedule: Q01DX009 (ip), vehicle: water): 99 % of control | T/C (dose: 50.0 mg/kg/injection, schedule: Q01DX009 (ip), vehicle: water): 98 % of control

O=C(O)c1cc2c(c(C(=O)O)c1O)CCCC2
T/C (dose: 6.25 mg/kg/injection, schedule: Q01DX005 (ip), vehicle: saline): 94 % of control | T/C [11]: 92 % of control | T/C [12]: 94 % of control

c1ccc(-c2[s+]ccc3ccccc23)cc1
T/C [13]: 115 % of control | T/C [14]: 118 % of control | T/C [15]: 117 % of control

CN1CCOC(c2ccccc2)c2ccsc2CC1 (centres undefined)
T/C [4]: 98 % of control | T/C [5]: 93 % of control

CC(C)=CCC/C(C)=C/Cc1ccccc1
T/C [16]: 101 % of control and 109 % of control | T/C [17]: 103 % of control and 110 % of control | T/C (dose: 200.0 mg/kg/injection, schedule: Q01DX009 (ip), vehicle: saline with Tween-80): 109 % of control

COC(=O)C(=C(C)C)S(=O)c1ccccc1 (centres undefined)
T/C [11]: 102 % of control | T/C [12]: 103 % of control | T/C (dose: 50.0 mg/kg/injection, schedule: Q01DX005 (ip), vehicle: saline): 100 % of control and 104 % of control

CCc1nc(Cc2ccccc2)nc2c1nc(-c1ccccc1)n2Nc1ccccc1
T/C [10]: 92 % of control | T/C (dose: 200.0 mg/kg/injection, schedule: Q01DX001 (ip), vehicle: saline with Tween-80): 98 % of control | T/C (dose: 400.0 mg/kg/injection, schedule: Q01DX001 (ip), vehicle: saline with Tween-80): 92 % of control

CC(=S)SC1(C)SC(C)(SC(C)=S)S1 (centres undefined)
T/C [18]: 91 % of control | T/C [16]: 94 % of control | T/C [17]: 94 % of control

COc1cccc2c1C(=O)c1c(O)c3c(c(O)c1C2=O)C[C@@](O)(C(C)=O)C[C@@H]3OC1CC(NC(C)=O)C(O)C(C)O1 (some centres undefined)
T/C (dose: 2.0 mg/kg/injection, schedule: Q01DX009 (ip), vehicle: saline): 113 % of control | T/C (dose: 3.13 mg/kg/injection, schedule: Q01DX009 (ip), vehicle: saline): 157 % of control | T/C (dose: 6.25 mg/kg/injection, schedule: Q01DX009 (ip), vehicle: saline): 109 % of control | T/C (dose: 12.5 mg/kg/injection, schedule: Q01DX009 (ip), vehicle: saline): 166 % of control

C[As](C)SC(CO)C1OC2OC(C)(C)OC2C1O (centres undefined)
T/C (dose: 50.0 mg/kg/injection, schedule: Q01DX009 (ip), vehicle: saline + alcohol): 108 % of control

CN1CCNc2c1cc(O)c1c2C(=O)c2ccccc2C1=O
T/C (dose: 100.0 mg/kg/injection, schedule: Q01DX001 (ip), vehicle: Klucel (hydroxypropylcellulose) (HPC)): 101 % of control | T/C (dose: 200.0 mg/kg/injection, schedule: Q01DX001 (ip), vehicle: Klucel (hydroxypropylcellulose) (HPC)): 94 % of control | T/C (dose: 400.0 mg/kg/injection, schedule: Q01DX001 (ip), vehicle: Klucel (hydroxypropylcellulose) (HPC)): 98 % of control

C/C(=N\NC(=S)N1CCN(Cc2ccccc2)CC1)c1ccccn1
T/C (dose: 3.13 mg/kg/injection, schedule: Q01DX005 (ip), vehicle: saline with Tween-80): 118 % of control | T/C (dose: 12.5 mg/kg/injection, schedule: Q01DX005 (ip), vehicle: saline with Tween-80): 152 % of control

COc1cccc2c1C(=O)c1c(O)c3c(c(O)c1C2=O)C(OC)C(O)(C(C)=O)CC3OC1CC(N)C(O)C(C)O1 (centres undefined)
T/C (dose: 3.13 mg/kg/injection, schedule: Q04DX003 (ip), vehicle: water): 100 % of control | T/C (dose: 6.25 mg/kg/injection, schedule: Q04DX003 (ip), vehicle: water): 100 % of control | T/C (dose: 12.5 mg/kg/injection, schedule: Q04DX003 (ip), vehicle: water): 108 % of control | T/C (dose: 25.0 mg/kg/injection, schedule: Q04DX003 (ip), vehicle: water): 115 % of control | T/C (dose: 50.0 mg/kg/injection, schedule: Q04DX003 (ip), vehicle: water): 115 % of control

NC(Cc1ccc(N(CCCl)CCCl)cc1)C(=O)O (centres undefined)
T/C (dose: 3.12 mg/kg/injection, schedule: Q01DX009 (ip), vehicle: Klucel (hydroxypropylcellulose) (HPC)): 285 % of control and 309 % of control | T/C (dose: 6.25 mg/kg/injection, schedule: Q01DX009 (ip), vehicle: Klucel (hydroxypropylcellulose) (HPC)): 99 % of control and 105 % of control and 117 % of control

Cc1ccc(S(=O)(=O)N(C=O)c2ccccc2)cc1
T/C [16]: 90 % of control | T/C [17]: 90 % of control

C[C@@H]1C(=O)O[C@H]2[C@H]1CC[C@@]1(C)C=C(Cl)C(=O)[C@@H](C)[C@H]21
T/C (dose: 50.0 mg/kg/injection, schedule: Q04DX002 (ip), vehicle: saline with Tween-80): 100 % of control | T/C [19]: 117 % of control

N#CCC(=O)N/N=C(/CC1(O)C(=O)Nc2c(Cl)ccc(Cl)c21)c1ccco1 (centres undefined)
T/C [19]: 97 % of control | T/C [20]: 89 % of control | T/C [21]: 89 % of control

CCOC(=O)C(CC(C)C)NC(C)=O (centres undefined)
T/C [19]: 100 % of control | T/C [20]: 105 % of control | T/C [21]: 114 % of control

CS(=O)(=O)Oc1ccc([N+](=O)[O-])cc1
T/C [13]: 98 % of control | T/C [14]: 107 % of control | T/C [15]: 114 % of control

O=C(CNC(=O)OCc1ccccc1)NCC1OC(n2cnc3c(=O)[nH]cnc32)C(O)C1O (centres undefined)
T/C (dose: 50.0 mg/kg/injection, schedule: Q04DX003 (ip), vehicle: saline with Tween-80): 102 % of control | T/C (dose: 100.0 mg/kg/injection, schedule: Q04DX003 (ip), vehicle: saline with Tween-80): 94 % of control | T/C (dose: 200.0 mg/kg/injection, schedule: Q04DX003 (ip), vehicle: saline with Tween-80): 98 % of control

CC1(C)C2=CC3(C)N(CN2c2ccccc21)c1ccccc1C3(C)C (centres undefined)
T/C [1]: 92 % of control | T/C [2]: 95 % of control | T/C [3]: 95 % of control

CCOc1nsc(OCC)n1
T/C (dose: 12.5 mg/kg/injection, schedule: Q01DX009 (ip), vehicle: saline with Tween-80): 103 % of control | T/C [18]: 106 % of control | T/C [16]: 106 % of control | T/C [17]: 114 % of control

COc1ccc2ccc3cccnc3c2n1
T/C [4]: 93 % of control | T/C [5]: 99 % of control | T/C [6]: 105 % of control

COC1NC(=O)Oc2ccccc21 (centres undefined)
T/C [7]: 109 % of control and 97 % of control | T/C [8]: 108 % of control and 109 % of control | T/C [9]: 114 % of control

— PubChem BioAssay AID330 (DTP/NCI, 2004)
